Measured values taken from US9273040B2 (Merck Sharp & Dohme Corp., priority 2011, dated 2016).
pIC50: −log10 of the molar value.

Columns and labels:
[1] = target: T1, human Nav1.7 channels stably expressed in HEK 293 cells (Homo sapiens, UniProt Q15858); assay: PatchXpress 7000 automated patch-clamp, sodium current; format: cell-based; details: 22° C., read-out: potency for the Nav 1.7 sodium ion channel (as measured by PatchXpress)
T1 construct: expressed in transfected cells
Summary of the method: (§1)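 IC50 values came from Hill-equation fits of rundown-corrected inhibition. PatchXpress recordings at 22° C held cells 20 mV negative to V0.5 inact and applied 10 Hz trains of 30 ms steps to −20 mV (Nav1.7) or an 8000 ms prepulse 7 mV positive to V0.5 inact. […]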

[2] = target: T2, human Nav1.5 channels stably expressed in HEK 293 cells (Homo sapiens, UniProt Q14524); assay: as above; format: cell-based; details: selectivity over Nav1.5
T2 construct: expressed in transfected cells
Summary of the method: as §1

T2 sequence (Q14524 whole entry): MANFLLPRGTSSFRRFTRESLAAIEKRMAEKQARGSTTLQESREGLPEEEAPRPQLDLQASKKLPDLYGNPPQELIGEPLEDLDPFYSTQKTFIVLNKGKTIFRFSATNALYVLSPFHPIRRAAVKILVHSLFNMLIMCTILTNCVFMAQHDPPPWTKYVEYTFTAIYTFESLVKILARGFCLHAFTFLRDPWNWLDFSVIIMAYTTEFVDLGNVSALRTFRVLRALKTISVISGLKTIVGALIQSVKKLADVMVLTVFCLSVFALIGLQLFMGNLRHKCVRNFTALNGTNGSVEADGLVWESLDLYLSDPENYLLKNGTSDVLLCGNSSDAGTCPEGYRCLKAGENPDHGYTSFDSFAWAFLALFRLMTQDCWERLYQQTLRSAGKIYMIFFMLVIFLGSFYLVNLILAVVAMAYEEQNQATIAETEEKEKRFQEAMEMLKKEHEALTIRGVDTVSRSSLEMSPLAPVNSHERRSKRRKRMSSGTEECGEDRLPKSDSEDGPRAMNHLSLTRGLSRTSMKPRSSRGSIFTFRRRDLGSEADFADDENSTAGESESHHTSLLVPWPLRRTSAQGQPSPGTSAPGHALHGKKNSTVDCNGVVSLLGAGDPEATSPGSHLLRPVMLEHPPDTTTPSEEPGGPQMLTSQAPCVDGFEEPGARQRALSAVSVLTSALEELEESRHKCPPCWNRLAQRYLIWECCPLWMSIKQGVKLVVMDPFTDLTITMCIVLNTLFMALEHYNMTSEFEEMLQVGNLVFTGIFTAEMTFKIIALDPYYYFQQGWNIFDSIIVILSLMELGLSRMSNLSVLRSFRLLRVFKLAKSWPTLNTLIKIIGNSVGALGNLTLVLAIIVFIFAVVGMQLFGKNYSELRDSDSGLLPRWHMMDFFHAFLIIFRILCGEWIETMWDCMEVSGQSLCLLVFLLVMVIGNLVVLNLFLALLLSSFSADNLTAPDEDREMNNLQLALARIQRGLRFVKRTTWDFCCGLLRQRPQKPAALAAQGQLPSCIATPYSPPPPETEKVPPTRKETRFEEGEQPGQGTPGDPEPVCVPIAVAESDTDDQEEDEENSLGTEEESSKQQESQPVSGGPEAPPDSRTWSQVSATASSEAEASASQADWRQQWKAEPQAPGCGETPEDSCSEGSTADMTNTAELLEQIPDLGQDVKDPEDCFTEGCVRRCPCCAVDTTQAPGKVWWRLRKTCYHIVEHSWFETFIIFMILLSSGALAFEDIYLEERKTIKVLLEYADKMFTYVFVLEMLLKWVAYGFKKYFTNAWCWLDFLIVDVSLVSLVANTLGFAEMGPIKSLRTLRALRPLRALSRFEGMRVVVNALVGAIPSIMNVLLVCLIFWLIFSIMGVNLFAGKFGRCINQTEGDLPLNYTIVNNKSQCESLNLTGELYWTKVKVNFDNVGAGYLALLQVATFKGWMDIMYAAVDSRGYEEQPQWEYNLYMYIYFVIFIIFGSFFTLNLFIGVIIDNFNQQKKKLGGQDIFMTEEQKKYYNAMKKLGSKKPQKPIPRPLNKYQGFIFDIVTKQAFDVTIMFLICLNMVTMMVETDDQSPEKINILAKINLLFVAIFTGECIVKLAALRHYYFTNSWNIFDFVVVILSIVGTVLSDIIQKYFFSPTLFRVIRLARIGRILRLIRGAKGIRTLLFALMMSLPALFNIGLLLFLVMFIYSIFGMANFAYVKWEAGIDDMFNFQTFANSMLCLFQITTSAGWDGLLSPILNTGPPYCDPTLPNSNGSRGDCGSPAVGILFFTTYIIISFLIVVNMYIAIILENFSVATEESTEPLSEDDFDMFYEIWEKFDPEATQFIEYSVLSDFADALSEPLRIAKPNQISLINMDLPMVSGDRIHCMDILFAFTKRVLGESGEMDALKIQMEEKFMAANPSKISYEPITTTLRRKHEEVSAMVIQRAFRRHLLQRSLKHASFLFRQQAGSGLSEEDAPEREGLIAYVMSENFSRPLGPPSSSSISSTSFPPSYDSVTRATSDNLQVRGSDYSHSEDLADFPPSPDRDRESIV
T1 sequence (Q15858 whole entry): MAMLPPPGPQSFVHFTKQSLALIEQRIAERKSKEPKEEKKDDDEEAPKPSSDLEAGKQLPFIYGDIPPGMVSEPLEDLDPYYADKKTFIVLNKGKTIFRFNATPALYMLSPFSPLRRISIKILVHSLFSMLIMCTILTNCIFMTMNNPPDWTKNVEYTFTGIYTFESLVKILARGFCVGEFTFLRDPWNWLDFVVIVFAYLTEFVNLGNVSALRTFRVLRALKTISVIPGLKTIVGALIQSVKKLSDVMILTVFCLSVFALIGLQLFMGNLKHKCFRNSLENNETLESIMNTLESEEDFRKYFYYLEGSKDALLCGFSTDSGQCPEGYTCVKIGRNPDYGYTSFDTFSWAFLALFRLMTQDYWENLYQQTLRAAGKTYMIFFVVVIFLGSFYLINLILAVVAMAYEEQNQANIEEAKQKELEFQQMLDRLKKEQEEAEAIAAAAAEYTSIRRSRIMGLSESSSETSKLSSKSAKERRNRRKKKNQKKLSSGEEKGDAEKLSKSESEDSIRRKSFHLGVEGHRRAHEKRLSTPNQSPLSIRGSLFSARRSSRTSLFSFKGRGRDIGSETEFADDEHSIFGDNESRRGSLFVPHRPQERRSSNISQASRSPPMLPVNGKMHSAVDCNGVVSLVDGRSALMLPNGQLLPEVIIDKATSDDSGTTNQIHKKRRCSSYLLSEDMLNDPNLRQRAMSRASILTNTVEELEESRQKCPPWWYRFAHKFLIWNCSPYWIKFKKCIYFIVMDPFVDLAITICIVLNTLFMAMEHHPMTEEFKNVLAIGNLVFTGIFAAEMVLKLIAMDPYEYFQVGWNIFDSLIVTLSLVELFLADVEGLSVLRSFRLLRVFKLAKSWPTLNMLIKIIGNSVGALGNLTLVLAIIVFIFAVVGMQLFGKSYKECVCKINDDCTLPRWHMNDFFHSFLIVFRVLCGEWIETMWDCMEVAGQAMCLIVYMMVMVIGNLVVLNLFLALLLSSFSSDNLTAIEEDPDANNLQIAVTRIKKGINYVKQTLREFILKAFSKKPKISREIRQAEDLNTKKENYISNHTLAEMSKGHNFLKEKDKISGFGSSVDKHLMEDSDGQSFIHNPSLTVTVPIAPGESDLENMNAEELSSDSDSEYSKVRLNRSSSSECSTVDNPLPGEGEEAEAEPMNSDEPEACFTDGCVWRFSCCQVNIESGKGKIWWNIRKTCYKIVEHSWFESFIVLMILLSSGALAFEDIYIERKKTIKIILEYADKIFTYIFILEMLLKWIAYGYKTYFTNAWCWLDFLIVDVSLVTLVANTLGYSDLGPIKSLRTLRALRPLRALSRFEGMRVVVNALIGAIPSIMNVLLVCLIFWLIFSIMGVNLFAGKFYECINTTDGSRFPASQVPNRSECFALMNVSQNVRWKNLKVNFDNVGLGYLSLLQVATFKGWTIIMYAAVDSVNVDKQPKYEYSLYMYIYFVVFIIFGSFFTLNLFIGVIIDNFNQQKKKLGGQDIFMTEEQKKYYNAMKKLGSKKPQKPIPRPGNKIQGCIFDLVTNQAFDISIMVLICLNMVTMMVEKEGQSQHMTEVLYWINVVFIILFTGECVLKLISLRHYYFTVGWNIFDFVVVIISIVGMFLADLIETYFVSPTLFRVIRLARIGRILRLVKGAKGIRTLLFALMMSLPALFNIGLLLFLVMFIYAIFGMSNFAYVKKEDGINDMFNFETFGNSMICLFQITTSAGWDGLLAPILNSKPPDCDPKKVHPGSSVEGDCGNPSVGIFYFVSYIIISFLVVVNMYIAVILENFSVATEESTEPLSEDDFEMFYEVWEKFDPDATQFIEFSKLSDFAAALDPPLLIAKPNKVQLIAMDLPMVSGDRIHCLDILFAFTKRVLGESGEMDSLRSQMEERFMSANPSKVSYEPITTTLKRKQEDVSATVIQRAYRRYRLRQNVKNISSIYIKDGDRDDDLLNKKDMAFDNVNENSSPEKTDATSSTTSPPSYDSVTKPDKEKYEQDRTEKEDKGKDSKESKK

Compound	pIC50 [1]	ratio of Nav 1.5:Nav 1.7 potency, determined by PatchXpress measurement [2]
O=c1oc2cc(S(=O)(=O)Nc3nccs3)c(F)cc2n1C1CCCc2ccc(F)cc21 (centres unmarked) [Compound 43-12, 5-fluoro-3-(7-fluoro-1,2,3,4-tetrahydronaphthalen-1-yl)-2-oxo-N-1,3-thiazol-2-yl-2,3-dihydro-1,3-benzoxazole-6-sulfonamide]	7.52	145
O=c1oc2cc(S(=O)(=O)Nc3ncns3)c(F)cc2n1Cc1cccc2c1CC(NCC(F)(F)F)CC2 (racemic) [Compound 23-7, (+/−)-5-fluoro-2-oxo-N-1,2,4-thiadiazol-5-yl-3-({7-[(2,2,2-trifluoroethyl)amino]-5,6,7,8-tetrahydronaphthalen-1-yl}methyl)-2,3-dihydro-1,3-benzoxazole-6-sulfonamide]	6.69	146
Cc1csc(NS(=O)(=O)c2ccc3c(c2)oc(=O)n3C(C)c2ccccc2)n1 (centres unmarked) [Compound 40-5, N-(4-methyl-1,3-thiazol-2-yl)-2-oxo-3-(1-phenylethyl)-2,3-dihydro-1,3-benzoxazole-6-sulfonamide]	5.92	25
Cl.O=c1oc2cc(S(=O)(=O)Nc3ncns3)c(F)cc2n1Cc1cccc2c1CNCC2F (centres unmarked) [Compound 24-9, 5-fluoro-3-((4-fluoro-1,2,3,4-tetrahydroisoquinolin-8-yl)methyl)-2-oxo-N-(1,2,4-thiadiazol-5-yl)-2,3-dihydrobenzo[d]oxazole-6-sulfonamide hydrochloride]	6.74	704
Cn1cc2cccc(Cn3c(=O)oc4cc(S(=O)(=O)Nc5ncns5)c(F)cc43)c2n1 [Compound 11-11, 5-fluoro-3-[(2-methyl-2H-indazol-7-yl)methyl]-2-oxo-N-1,2,4-thiadiazol-5-yl-2,3-dihydro-1,3-benzoxazole-6-sulfonamide]	6.31	81
O=c1oc2cc(S(=O)(=O)Nc3nccs3)c(F)cc2n1C1CC2(CCC2)Oc2ccc(Br)cc21 (centres unmarked) [Compound 43-10, 3-(6-bromo-3,4-dihydrospiro[chromene-2,1′-cyclobutan]-4-yl)-5-fluoro-2-oxo-N-1,3-thiazol-2-yl-2,3-dihydro-1,3-benzoxazole-6-sulfonamide]	7.24	29
CNC1CCc2cccc(Cn3c(=O)oc4cc(S(=O)(=O)Nc5ncns5)c(F)cc43)c2C1 (racemic) [Compound 23-26, (+/−)-5-fluoro-3-{[7-(methylamino)-5,6,7,8-tetrahydronaphthalen-1-yl]methyl}-2-oxo-N-1,2,4-thiadiazol-5-yl-2,3-dihydro-1,3-benzoxazole-6-sulfonamide]	7.92	2451
O=c1oc2cc(S(=O)(=O)Nc3ncns3)c(F)cc2n1C1CC2(CCN(Cc3ccccc3)CC2)Oc2ccccc21 (centres unmarked) [Compound 39-11, 3-(1′-benzyl-3,4-dihydrospiro[chromene-2,4′-piperidin]-4-yl)-5-fluoro-2-oxo-N-1,2,4-thiadiazol-5-yl-2,3-dihydro-1,3-benzoxazole-6-sulfonamide]	6.78	114
C[C@H](c1ccccc1C1(F)CNC1)n1c(=O)oc2cc(S(=O)(=O)Nc3ncns3)c(F)cc21 [Compound 32-6, (R)-5-Fluoro-3-(1-(2-(3-fluoroazetidin-3-yl)phenyl)ethyl)-2-oxo-N-(1,2,4-thiadiazol-5-yl)-2,3-dihydrobenzo[d]oxazole-6-sulfonamide]	7.74	1333
CC(c1cccc(-c2cccnc2)c1)n1c(=O)oc2cc(S(=O)(=O)Nc3ncns3)c(F)cc21 (centres unmarked) [Compound 29-4, 5-fluoro-2-oxo-3-[1-(3-pyridin-3-ylphenyl)ethyl]-N-1,2,4-thiadiazol-5-yl-2,3-dihydro-1,3-benzoxazole-6-sulfonamide]	6.79	57
